Experimental data reported in patent US20130324582A1, “METHODS AND COMPOSITIONS FOR REDUCING FUNGAL INFESTATION AND IMPROVING GRASS QUALITY” (BAYER CROPSCIENCE LP, priority 2012, published 2013).

Tested on: Dollar Spot
Assay: Dollar Spot infestation on Bentgrass Green (field application by knapsack sprayer)
Type: in vivo, Sclerotinia homoeocarpa
Details: applied at 0, 6, 14 days
From the text: Example 1 sets forth the Dollar Spot infestation on Bentgrass Green.
A suspension concentrate composition of Compound I-1 as defined herein with and without the addition of Synergen® KN was applied to Bentgrass Green at 0, 6, and 14 days using a knapsack sprayer. Synergen® KN contains a blend of phosphate and ethoxylated alcohol compounds, such as a blend of poly(oxy-1,2-ethanediyl), α-isotridecyl-ω-hydroxy-, phosphate and ethoxylated C12-C16 alcohols.
In Table 1, untreated Bentgrass Green (1) was compared to a composition including Compound I-1 at 440 grams/hectacre (“GA/HA”) (2), a composition including Compound I-1 at 440 GA/HA+Synergen® KN at 1% by volume (3), a composition including Compound I-1 at 880 GA/HA (4), a composition including Compound I-1 at 880 GA/HA+Synergen® KN at 1% by volume (5), a composition including Compound I-1 at 1320 GA/HA (6), and composition including a Compound I-1 at 1320 GA/HA+Synergen® KN at 1% by volume (7). As set forth in Table 1, ratings were evaluated at −1, 6, 13, 22, 28, 35, and 48 days.

In the case of Cn1c(=O)c2sc3c(=O)n(C)c(=O)c3sc2c1=O [Compound I-1, 2,6-dimethyl-1H,5H-[1,4]dithiino[2,3-c:5,6-c′]dipyrrole-1,3,5,7(2H,6H)-tetrone], the “Percentage of Dollar Spot” value (440 GA/HA, rating Day 6, adjuvant where present 1% by volume) is reported as 7.5%, the “Percentage of Dollar Spot” value (440 GA/HA, rating Day 13, adjuvant where present 1% by volume) is reported as 10.8% and the “Percentage of Dollar Spot” value (440 GA/HA, rating Day 22, adjuvant where present 1% by volume) is reported as 12.8%. The “Percentage of Dollar Spot” value (440 GA/HA, rating Day 28, adjuvant where present 1% by volume) was 14.5%, the “Percentage of Dollar Spot” value (440 GA/HA, rating Day 35, adjuvant where present 1% by volume) was 19.5% and the “Percentage of Dollar Spot” value (440 GA/HA, rating Day 48, adjuvant where present 1% by volume) was 22.8%. The “Percentage of Dollar Spot” value (440 GA/HA, rating Day −1, adjuvant where present 1% by volume) was 8.3%, the “Percentage of Dollar Spot” value (880 GA/HA, rating Day 6, adjuvant where present 1% by volume) was 7.8% and the “Percentage of Dollar Spot” value (880 GA/HA, rating Day 13, adjuvant where present 1% by volume) was 10.5%. The “Percentage of Dollar Spot” value (880 GA/HA, rating Day 22, adjuvant where present 1% by volume) was 11.3%, the “Percentage of Dollar Spot” value (880 GA/HA, rating Day 28, adjuvant where present 1% by volume) was 12.5% and the “Percentage of Dollar Spot” value (880 GA/HA, rating Day 35, adjuvant where present 1% by volume) was 17%. For the same compound, the “Percentage of Dollar Spot” value (880 GA/HA, rating Day 48, adjuvant where present 1% by volume) was 20.8%, the “Percentage of Dollar Spot” value (880 GA/HA, rating Day −1, adjuvant where present 1% by volume) was 8.3% and the “Percentage of Dollar Spot” value (1320 GA/HA, rating Day 6, adjuvant where present 1% by volume) was 8.3%. For the same compound, the “Percentage of Dollar Spot” value (1320 GA/HA, rating Day 13, adjuvant where present 1% by volume) was 10.5%, the “Percentage of Dollar Spot” value (1320 GA/HA, rating Day 22, adjuvant where present 1% by volume) was 12.8% and the “Percentage of Dollar Spot” value (1320 GA/HA, rating Day 28, adjuvant where present 1% by volume) was 14.8%. For the same compound, the “Percentage of Dollar Spot” value (1320 GA/HA, rating Day 35, adjuvant where present 1% by volume) was 17%, the “Percentage of Dollar Spot” value (1320 GA/HA, rating Day 48, adjuvant where present 1% by volume) was 20% and the “Percentage of Dollar Spot” value (1320 GA/HA, rating Day −1, adjuvant where present 1% by volume) was 9%.
